The results in this text go back to ChEMBL document CHEMBL1821631, “A novel binding assay identifies high affinity ligands to the rosiglitazone binding site of mitoNEET” (Bioorg Med Chem Lett, 2011).

Activity calls are given as the source filed them. No cut-off for these calls is given here.

The first experiment concerns the target T1, CDGSH iron-sulfur domain-containing protein 1 (Homo sapiens, UniProt Q9NZ45).
T1 sequence (Q9NZ45 whole entry): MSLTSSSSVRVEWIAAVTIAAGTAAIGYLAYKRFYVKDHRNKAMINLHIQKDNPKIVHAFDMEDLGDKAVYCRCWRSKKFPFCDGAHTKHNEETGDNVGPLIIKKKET
Briefly: Displacement of [3H]-rosiglitazone from human recombinant C-terminal His-tagged cytosolic domain of mitoNEET (32-108) by scintillation proximity assay.
Turning to `Cc1cc(C)cc(CC2SC(=O)NC2=O)c1` (stereo unspecified), the IC50 is 13.3 µM. Take `COc1ccccc1/C=C1\SC(=O)N(CCN)C1=O`: the IC50 amounted to 82.3 µM. Regarding `O=C1NC(=O)C(Cc2ccc(O)cc2)S1` (stereo unspecified) [GLITAZONE], the IC50 was 14 µM. Take `Cc1cc(CC2SC(=O)NC2=O)cc(C)c1O` (stereo unspecified): the half-inhibitory concentration (IC50) is 9.56 µM. On to `COc1cc(/C=C2\SC(=S)NC2=O)ccc1O`, for which the IC50 came to 1.73 µM. The same measure, in the same setting: then `CC(C)(C)c1cc(CC2SC(=O)N=C2O)cc(C(C)(C)C)c1O` (stereo unspecified), with 7.36 µM; and `O=C(/C=C1/SC(=O)NC1=O)Nc1ccccc1`, with 11.1 µM; and `O=C(/C=C1/SC(=O)NC1=O)Nc1cccc(O)c1`, with 13.7 µM. On the same count and under the same terms, with `COc1cc(/C=C2/SC(=S)NC2=O)c(OC)cc1O` the figure was 4.47 µM; with `O=C1NC(=O)/C(=C\c2cc(Br)c(O)cc2Br)S1`, 2.93 µM; with `O=C1NC(=S)S/C1=C/c1ccncc1`, 5.97 µM. For `O=C1NC(=O)/C(=C/c2ccc3nccnc3c2)S1`, the IC50 is 3.26 µM. Still for that read-out and setting: with `O=S(=O)(O)Oc1cc(O)cc(/C=C/c2ccc(O)cc2)c1` the figure was 3.36 µM; with `O=C1NC(=O)C(Cc2ccc3c(c2)OC(F)(F)O3)S1` (stereo unspecified), 5.23 µM.

The next experiment addresses T2, CDGSH iron-sulfur domain-containing protein 1 (Homo sapiens) (UniProt Q9NZ45).
T2 sequence (whole entry): T1 sequence (Q9NZ45 whole entry)
Kind of experiment: Displacement of [3H]-rosiglitazone from human recombinant C-terminal His-tagged cytosolic domain of mitoNEET (32-108) at 80 uM by scintillation proximity assay.
As for `N#CCCN1C(=O)S/C(=C\c2ccccc2)C1=O`, the inhibition result was “inactive”. Same read-out and setting: with `Oc1ccc(/C=C/c2cc(O)cc(O)c2)cc1` the entry was “inactive”.
